Source: ChEMBL document CHEMBL1157738, “Simocyclinone D8 turns on against Gram-negative bacteria in a clinical setting” (2010)
Converted amounts (≈) assume the structure as drawn.

Key:
Klebsiella pneumoniae [1] = assay: Antibacterial activity against Klebsiella pneumoniae isolate 97 assessed as drug uptake relative to total amount drug treated; type: functional, organism-based
Klebsiella pneumoniae [2] = assay: Antibacterial activity against Klebsiella pneumoniae isolate 91 after 24 hrs by twofold serial dilution method; type: functional
Klebsiella pneumoniae [3] = assay: Antibacterial activity against Klebsiella pneumoniae isolate 5 expressing qnr B19 gene, GyrA D87G mutant assessed as residual bacterial survival at 50 mg/L after 24 hrs by twofold serial dilution method; type: functional; details: isolate 5, 24 h
Escherichia coli [4] = assay: Antibacterial activity against Escherichia coli isolate 50 expressing qnr B19 gene assessed as residual bacterial survival at 50 mg/L after 24 hrs by twofold serial dilution method; type: functional; details: isolate 50, 24 h
Staphylococcus aureus = assay: Antibacterial activity against Staphylococcus aureus assessed as residual bacterial survival at 50 mg/L after 24 hrs by twofold serial dilution method; type: functional
Klebsiella pneumoniae [5] = assay: Antibacterial activity against Klebsiella pneumoniae isolate 172 expressing qnr B19 gene, GyrA D87G mutant assessed as residual bacterial survival at 50 mg/L after 24 hrs by twofold serial dilution method; type: functional; details: isolate 172, 24 h
Klebsiella pneumoniae [6] = assay: Antibacterial activity against Klebsiella pneumoniae isolate 110 expressing qnr B19 gene, GyrA D87G mutant assessed as residual bacterial survival at 50 mg/L after 24 hrs by twofold serial dilution method; type: functional; details: isolate 110, 24 h
Escherichia coli [7] = assay: Antibacterial activity against Escherichia coli isolate 24 assessed as residual bacterial survival at 50 mg/L after 24 hrs by twofold serial dilution method; type: functional; details: isolate 24, 24 h
Escherichia coli [8] = assay: Antibacterial activity against Escherichia coli isolate 21 assessed as residual bacterial survival at 50 mg/L after 24 hrs by twofold serial dilution method; type: functional; details: isolate 21, 24 h
Klebsiella pneumoniae [9] = assay: Antibacterial activity against Klebsiella pneumoniae isolate 370 expressing qnr B19 gene, GyrA D87G mutant assessed as residual bacterial survival at 50 mg/L after 24 hrs by twofold serial dilution method; type: functional; details: isolate 370, 24 h
Escherichia coli [10] = assay: Antibacterial activity against Escherichia coli Top10 assessed as drug uptake; type: functional, organism-based
Klebsiella pneumoniae [11] = assay: Antibacterial activity against Klebsiella pneumoniae isolate 92 after 24 hrs by twofold serial dilution method; type: functional
Escherichia coli [12] = assay: Antibacterial activity against Escherichia coli isolate 50 expressing qnr B19 gene after 24 hrs by twofold serial dilution method; type: functional
Escherichia coli [13] = assay: Antibacterial activity against Escherichia coli isolate 41 after 24 hrs by twofold serial dilution method; type: functional
Klebsiella pneumoniae [14] = assay: Antibacterial activity against Klebsiella pneumoniae isolate 134 assessed as residual bacterial survival at 50 mg/L after 24 hrs by twofold serial dilution method; type: functional; details: isolate 134, 24 h
Escherichia coli [15] = assay: Antibacterial activity against Escherichia coli isolate 50 assessed as drug uptake relative to total amount drug treated; type: functional, organism-based
Klebsiella pneumoniae [16] = assay: Antibacterial activity against Klebsiella pneumoniae isolate 97 expressing qnr B19 gene assessed as residual bacterial survival at 50 mg/L after 24 hrs by twofold serial dilution method; type: functional; details: isolate 97, 24 h
Escherichia coli [17] = assay: Antibacterial activity against Escherichia coli HB101 after 24 hrs by twofold serial dilution method; type: functional
Klebsiella pneumoniae [18] = assay: Antibacterial activity against Klebsiella pneumoniae isolate 92 assessed as drug uptake relative to total amount drug treated; type: functional, organism-based
Escherichia coli [19] = assay: Antibacterial activity against Escherichia coli JM110 assessed as residual bacterial survival at 50 mg/L after 24 hrs by twofold serial dilution method; type: functional; details: JM110, 24 h
Escherichia coli [20] = assay: Antibacterial activity against Escherichia coli XL-1Blue assessed as residual bacterial survival at 50 mg/L after 24 hrs by twofold serial dilution method; type: functional
Klebsiella pneumoniae [21] = assay: Antibacterial activity against Klebsiella pneumoniae isolate 204 expressing qnr B19 gene assessed as residual bacterial survival at 50 mg/L after 24 hrs by twofold serial dilution method; type: functional; details: isolate 204, 24 h
Escherichia coli [22] = assay: Antibacterial activity against Escherichia coli JM110 after 24 hrs by twofold serial dilution method; type: functional
Escherichia coli [23] = assay: Antibacterial activity against Escherichia coli isolate 7 after 24 hrs by twofold serial dilution method; type: functional
Escherichia coli [24] = assay: Antibacterial activity against Escherichia coli Top10 assessed as drug uptake relative to total amount drug treated; type: functional, organism-based
Escherichia coli [25] = assay: Antibacterial activity against Escherichia coli isolate 47 expressing qnr B19 gene after 24 hrs by twofold serial dilution method; type: functional
Klebsiella pneumoniae [26] = assay: Antimicrobial activity against Klebsiella pneumoniae isolate 92 assessed as drug uptake; type: functional, organism-based
Escherichia coli [27] = assay: Antibacterial activity against Escherichia coli isolate 191 expressing qnr S1 gene after 24 hrs by twofold serial dilution method; type: functional
Escherichia coli [28] = assay: Antibacterial activity against Escherichia coli isolate 85 expressing GyrA S83L mutant assessed as residual bacterial survival at 50 mg/L after 24 hrs by twofold serial dilution method; type: functional; details: isolate 85, 24 h
Klebsiella pneumoniae [29] = assay: Antimicrobial activity against Klebsiella pneumoniae isolate 97 assessed drug uptake; type: functional, organism-based
Escherichia coli [30] = assay: Antibacterial activity against Escherichia coli HB101 assessed as residual bacterial survival at 50 mg/L after 24 hrs by twofold serial dilution method; type: functional; details: HB101, 24 h

CC(=O)O[C@@H]1[C@@H](C)O[C@@H](c2ccc3c(c2O)[C@@H](O)[C@]24O[C@@]2(C3=O)[C@@]2(O)C(=O)C=C(C)C[C@@]2(O)C[C@@H]4O)C[C@H]1OC(=O)/C=C/C=C/C=C/C=C/C(=O)Nc1c(O)c2ccc(O)c(Cl)c2oc1=O [SIMOCYCLINONE D8]
Drug uptake (Klebsiella pneumoniae [1]): 1.3%
MIC50 (Klebsiella pneumoniae [2]): > 100 µg/mL
survival at 50 µg/mL (Klebsiella pneumoniae [3]): > 90%
survival at 50 µg/mL (Escherichia coli [4]): 41%
survival at 50 µg/mL (Staphylococcus aureus): 66%
survival at 50 µg/mL (Klebsiella pneumoniae [5]): > 90%
survival at 50 µg/mL (Klebsiella pneumoniae [6]): > 90%
survival at 50 µg/mL (Escherichia coli [7]): 21%
survival at 50 µg/mL (Escherichia coli [8]): > 90%
survival at 50 µg/mL (Klebsiella pneumoniae [9]): > 90%
Drug uptake (Escherichia coli [10]): 80 pmol
MIC50 (Klebsiella pneumoniae [11]): 50 µg/mL (≈ 53.6 µM)
MIC50 (Escherichia coli [12]): 12 µg/mL (≈ 12.9 µM)
MIC50 (Escherichia coli [13]): 0.78 µg/mL (≈ 0.837 µM)
survival at 50 µg/mL (Klebsiella pneumoniae [14]): 51%
Drug uptake (Escherichia coli [15]): 5.87%
survival at 50 µg/mL (Klebsiella pneumoniae [16]): 68%
MIC50 (Escherichia coli [17]): > 100 µg/mL
Drug uptake (Klebsiella pneumoniae [18]): 1.96%
survival at 50 µg/mL (Escherichia coli [19]): > 90%
survival at 50 µg/mL (Escherichia coli [20]): > 90%
survival at 50 µg/mL (Klebsiella pneumoniae [21]): > 90%
MIC50 (Escherichia coli [22]): > 100 µg/mL
MIC50 (Escherichia coli [23]): >100%
Drug uptake (Escherichia coli [24]): 2.61%
MIC50 (Escherichia coli [25]): 12 µg/mL (≈ 12.9 µM)
Drug uptake (Klebsiella pneumoniae [26]): 60 pmol
MIC50 (Escherichia coli [27]): 25 µg/mL (≈ 26.8 µM)
survival at 50 µg/mL (Escherichia coli [28]): > 90%
Drug uptake (Klebsiella pneumoniae [29]): 40 pmol
survival at 50 µg/mL (Escherichia coli [30]): > 90%
